# US10118943B2, “Compounds and methods for inhibiting cell death” (Ramot at Tel-Aviv University Ltd., priority 2012, dated 2018)
# What was measured:
# [1] = molecular target: T1, full-length human EB3 recombinant protein (Homo sapiens, UniProt Q9UPY8); assay: Sulfolink coupling gel-NAP affinity chromatography with recombinant EB3, western analysis; format: binding; settings: 2 mg soluble peptide incubated with recombinant EB3 and column beads
# T1 construct: Full-length human EB3 was subcloned into pEX-N-His vector; 6xHis (N, cleaved yes); made in house; host or cells: E. coli BL21(DE3)
# T1 sequence (Q9UPY8 whole entry): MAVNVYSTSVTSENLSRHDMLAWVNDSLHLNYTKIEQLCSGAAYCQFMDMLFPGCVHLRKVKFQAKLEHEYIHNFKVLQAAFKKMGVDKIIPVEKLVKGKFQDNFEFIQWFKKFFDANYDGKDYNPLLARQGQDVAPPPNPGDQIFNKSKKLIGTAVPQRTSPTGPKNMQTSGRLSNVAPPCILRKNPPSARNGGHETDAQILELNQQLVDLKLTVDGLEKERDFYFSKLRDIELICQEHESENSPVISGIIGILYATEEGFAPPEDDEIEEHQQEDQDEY
# Method: Column load, flow through, wash and elution fractions were further analyzed by polyacrylamide gel electrophoresis, followed by western analysis with EB3 antibodies. […] Column chromatography, elution and western blots were performed as above. The extract fractions (flow, wash and elution) were separated by electrophoresis followed by protein detection (FIG. 6).
# PC12 cells = settings: ZnCl2 400 μM, increasing concentrations of peptide
# ADNP+/− mice = assay: Object recognition test in ADNP-deficient mice; format: in vivo, mouse; settings: intranasal, twice a day, 1 month, ADNP+/− male mice
# Text: All procedures involving animals were approved by the Animal Care and Use Committee of Tel Aviv University and the National Institutes of Health (Bethesda, Md.). ADNP heterozygous mice, a model for cognitive impairments (Vulih-Shultzman et al., 2007, J. Pharmacol. Exp. Ther. 323:438-449), were housed in a 12-h light/12-h dark cycle facility, and free access to rodent chow and water was available.
# SKIP (SEQ ID NO:6) treatment included daily intranasal administrations over a 1 month period to 5-month-old male mice (2 μg/5 μl/mouse/day). For intranasal administration, the peptide was dissolved in a vehicle solution, in which each milliliter included 7.5 mg of NaCl, 1.7 mg of citric acid monohydrate, 3 mg of disodium phosphate dihydrate, and 0.2 mg of benzalkonium chloride solution (50%). SKIP (SEQ ID NO:6) or vehicle solution (DD) was administered to mice hand-held in a semisupine position with nostrils facing the investigator. A pipette tip was used to administer 5 μl/each nostril. The mouse was handheld until the solution was totally absorbed (˜10 s). Nasal SKIP (SEQ ID NO:6) application was performed daily, twice a day, for 1 month (5 days a week). After 1 month, SKIP (SEQ ID NO:6) was applied 2 h before the behavioral tests (described below).
# The test includes 2 consecutive days of habituation (five minutes per day) and the experimental day which consists of the three phases. The test was conducted two hours after the daily intranasal SKIP (SEQ ID NO:6). During the first phase (Phase 1, habituation phase), the open field apparatus (arena of 50×50 cm) contained two identical objects (samples) and a mouse was placed in the apparatus facing the wall and allowed to freely explore the objects. At the end of the 5-min session of Phase 1, the mouse was put back into its home cage for 3 hours. […] The time spent sniffing/touching each object was measured. The data was analyzed using the following formula: D1=b−a, when ‘a’ designated the time of exploration of the familiar object and ‘b’ designated the time of exploration of the novel object. […]
sequence,measurement,setting,value
NAPVSKIPQ (synthetic novel peptide core sequence SKIP derived from hybrid microtubule end-binding protein 3 (EB3)- binding microtubule plus-end tracking proteins (+TIPs) and activity-dependent neurotrophic factor (ADNF) active core site (NAP)),competition for EB3 binding to column-bound NAP,[1],no binding of EB3 to the column bound NAP
same,protection against zinc-induced cell death,PC12 cells,"protected by the addition of SKIP, over a wide range of concentrations"
same,"object recognition, Phase 2 short retention (discrimination index D1)",ADNP+/− mice,improved the memory
